The numbers were not newly measured in US6638541B1, “Sexual desire and performance enhancement with protein-bound tryptophan” (priority 2002, dated 2003), which cites them from elsewhere.

The target in one data set is T1, plasma albumin (Homo sapiens, UniProt P02768).
T1 construct: host or cells: blood plasma in vivo (endogenous circulating albumin)
The note with it: after absorption, circulating in the blood.

The conditions of data set [1]: higher dosages (greater than 12 gm per day); Hartmann, 1977.

T1 sequence (P02768 25-609): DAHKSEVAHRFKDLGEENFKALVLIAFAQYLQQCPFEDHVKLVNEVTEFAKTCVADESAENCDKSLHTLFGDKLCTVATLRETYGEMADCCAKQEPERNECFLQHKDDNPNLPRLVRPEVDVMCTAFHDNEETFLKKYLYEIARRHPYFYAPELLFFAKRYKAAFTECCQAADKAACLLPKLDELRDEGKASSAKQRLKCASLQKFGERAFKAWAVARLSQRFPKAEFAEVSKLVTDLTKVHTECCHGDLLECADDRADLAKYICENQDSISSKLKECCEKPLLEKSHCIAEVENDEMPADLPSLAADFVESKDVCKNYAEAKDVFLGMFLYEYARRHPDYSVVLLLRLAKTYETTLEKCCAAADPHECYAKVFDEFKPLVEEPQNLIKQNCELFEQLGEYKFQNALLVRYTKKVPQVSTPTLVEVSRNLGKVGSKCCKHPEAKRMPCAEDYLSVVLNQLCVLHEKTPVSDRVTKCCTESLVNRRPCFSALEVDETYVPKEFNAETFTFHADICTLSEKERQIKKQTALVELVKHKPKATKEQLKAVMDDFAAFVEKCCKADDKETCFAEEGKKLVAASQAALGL

Regarding `N[C@@H](Cc1c[nH]c2ccccc12)C(=O)O` [tryptophan], at plasma albumin, the “fraction circulating as free tryptophan” value is 20% and the “fraction of tryptophan in blood bound to plasma albumin” value is given as “approximately 80%”. For the same molecule, the “dose at which the hypnotic dose-response curve plateaus” value in the data set with sleep / sleep latency (fairly flat dose-response curve, Schneider-Helmut and Spinweber, 1986) is “approximately 1000 mg”. The “dose sufficient to produce improved sleep” value in the data set with sleep / sleep latency (given alone, people with mild insomnia or longer-than-average sleep latency) is 250 mg. The most frequent complaints result in data set [1] was “daytime sedation and nausea”.
